Patent US6933308B2 (Bristol-Myers Squibb Company, priority 2002, dated 2005)

Tested on: KCNQ channels
Experiment: Thallium flux assay for KCNQ channel openers
Assay type: cell-based
Details: HEK-293 cells stably transfected with a KCNQ family member; for Min conc. response: minimal active concentration: lowest concentration giving signal >= 4 SD of negative controls; for EC50: thallium flux, 10 point concentration series
Description: Thallium Flux Assay for KCNQ Channel Openers.
The thallium assay is a modification of that published by Weaver and is referenced in its entirety (Weaver, C. D. WO 02/31508, 2002).
Approximately 20,000 cells/well of an HEK-293 cell line stably transfected with one of the members of the KCNQ family were plated into clear-bottom, black-walled, poly-D-lysine coated, 384 well assay plates in 20 μl/well of low chloride plating medium. Low chloride plating medium was composed of the following: sodium gluconate, 109 mM; potassium gluconate, 5.4 mM; hemi-calcium gluconate, 3.6 mM; magnesium sulfate, 0.8 mM; sodium bicarbonate, 26.2 mM; sodium phosphate monobasic, 1.2 mM; glutamine, 2 mM; glucose, 5 mM; 4-(2-hydroxyethyl)-1-piperazineethanesulfonic acid (HEPES) (pH 7.3) 10 mM, MEM vitamin solution (10× concentration of vitamins, Gibco/LifeTechnologies 11120-052) and MEM amino acid solution (1× concentration of amino acids, Gibco/LifeTechnologies 11130-051).
Following overnight incubation in a 5% CO2 incubator at 37° C., the cells in the plates were loaded with 20 μl/well of a dye loading solution containing the commercially available thallium-sensitive fluorescent dye BTC-AM, the acetomethoxy ester of BTC (see U.S. Pat. No. 5,501,980) (2 μM) and pluronic acid F-127 (Molecular Probes P 6867) (0.02% w/v) in chloride free assay buffer. Chloride free assay buffer was composed of the following: sodium gluconate, 140 mM; potassium gluconate, 2.5 mM; hemi-calcium gluconate, 6 mM; hemi-magnesium gluconate, 2 mM; glucose, 5 mM; HEPES (pH 7.3), 10 mM.
Following incubation in the dye loading solution for from 45-90 min at room temperature, the dye loading solution was removed by aspiration and replaced with 40 μl/well of chloride free assay buffer.
Prior to addition to cell plates, test compound and standard compounds were dissolved in DMSO to 3 mM concentration. Compounds were then diluted from the 3 mM stock to 100-fold over the final assay concentration in DMSO. Finally, compounds in DMSO were diluted from 100-fold over the final assay concentration to 5-fold over the final assay concentration in chloride free assay buffer.
Ten μl/well of compounds at 5-fold over the final assay concentration were then added to the cell plates. This represents a 1:5 dilution, yielding the final test concentration. The wells used for test compounds were A1-P20. Wells A21-P22 contained a standard opener and a maximally efficacious concentration (positive control). Wells A23-P24 contained chloride free assay buffer containing 1% DMSO (negative control).
Following addition of test compounds, the plates were loaded onto the Molecular Devices FLIPR. The 488 nm line of the argon laser was used to excite the BTC and the emission filter was a 540(+/−30) nm. Images were collected at 1 Hz. Ten seconds of baseline were collected and then the FLIPR was used to add 13 μl/well of a stimulus buffer composed of 7.5 mM Tl2SO4 in chloride free assay buffer. Images were collected for an additional 60 seconds.
For data analysis, the amplitude of the average of the negative controls was subtracted from all wells. The amplitudes of the test compounds were then compared to the value of four standard deviations of the negative control wells. The lowest concentration of a test compound sufficient to generate a signal amplitude greater than or equal to four standard deviations from the amplitude of the negative controls was defined as the minimal active concentration.
For generating EC50 values, compounds were serially diluted in 1:3 volume increments to produce a 10 point concentration series. EC50 values were calculated by fitting the resulting amplitudes to a single-site logistic equation. EC50 was defined as the concentration of test compound required to yield 50% of the maximal response. Maximal response (Maximal opening) was the largest signal amplitude divided by the negative control amplitude generated by any concentration of a test compound. […]

EC50 [nM] | Compound | Min conc. response [µM]
1000 to 20000 | CC(NC(=O)c1sc(CCNC2CCCC2)nc1C(F)(F)F)c1cccc(OC(F)(F)F)c1 (stereo not shown) [Example 36, 2-[2-(cyclopentylamino)ethyl]-N-[1-[3-(trifluoromethoxy)phenyl]ethyl]-4-(trifluoromethyl)-5-thiazolecarboxamide] | 30
1000 to 20000 | C[C@H](NC(=O)c1sc(CCNC2CCCC2)nc1C(F)(F)F)c1cccc(-c2cccnc2)c1 [Example 37] | 30
1000 to 20000 | COCCN(CCOC)CCc1nc(C(F)(F)F)c(C(=O)NC(C)c2cccc(OC(F)(F)F)c2)s1 (stereo not shown) [Example 38] | 3
1000 to 20000 | COCCN(CCOC)CCc1nc(C(F)(F)F)c(C(=O)NC(C)c2cccc(C(F)(F)F)c2)s1 (stereo not shown) [Example 39] | 3
50 to 1000 | COCCN(CCOC)CCc1nc(C(F)(F)F)c(C(=O)N[C@@H](C)c2cccc(-c3cccnc3)c2)s1 [Example 40] | 30
1000 to 20000 | CC(NC(=O)c1sc(C(O)CN2CCCCC2)nc1C(F)(F)F)c1cccc(OC(F)(F)F)c1 (stereo not shown) [Example 41, 2-[1-hydroxy-2-(1-piperidinyl)ethyl]-N-[1-[3-(trifluoromethoxy)phenyl]ethyl]-4-(trifluoromethyl)-5-thiazolecarboxamide] | 30
50 to 1000 | CC(NC(=O)c1sc(C(O)CN2CCCC2)nc1C(F)(F)F)c1cccc(C(F)(F)F)c1 (stereo not shown) [Example 42, 2-[1-hydroxy-2-(1-pyrrolidinyl)ethyl]-N-[1-[3-(trifluoromethyl)phenyl]ethyl]-4-(trifluoromethyl)-5-thiazolecarboxamide] | 3
50 to 1000 | CC(NC(=O)c1sc(C(O)CN(C)Cc2ccco2)nc1C(F)(F)F)c1cccc(C(F)(F)F)c1 (stereo not shown) [Example 43, 2-[1-hydroxy-[2-(2-furanylmethyl)methylamino]ethyl]-N-[1-[3-(trifluoromethyl)phenyl]ethyl]-4-(trifluoromethyl)-5-thiazolecarboxamide] | 3
50 to 1000 | CCCN(CC1CC1)CC(O)c1nc(C(F)(F)F)c(C(=O)NC(C)c2cccc(OC(F)(F)F)c2)s1 (stereo not shown) [Example 44] | 3
– | C[C@H](NC(=O)c1sc(CCN2CCOCC2)nc1C(F)(F)F)c1cccc(N2CCOCC2)c1 [Example 45, 2-[2-(4-morpholinyl)ethyl]-N-[(1S)-1-[3-(4-morpholinyl)phenyl]ethyl]-4-(trifluoromethyl)-5-thiazolecarboxamide] | 3
– | CC(NC(=O)c1sc(CCN2CCSCC2)nc1C(F)(F)F)c1cccc(N(C)C)c1 (stereo not shown) [Example 46, N-[1-[3-(dimethylamino)phenyl]ethyl]-2-[2-(4-thiomorpholinyl)ethyl]-4-(trifluoromethyl)-5-thiazolecarboxamide] | 3
– | CC(NC(=O)c1sc(CCN(C)CCN(C)C)nc1C(F)(F)F)c1cccc(N(C)C)c1 (stereo not shown) [Example 47, 2-[2-[[2-(dimethylamino)ethyl]methylamino]ethyl]-N-[1-[3-(dimethylamino)phenyl]ethyl]-4-(trifluoromethyl)-5-thiazolecarboxamide] | 0.3
– | C[C@H](NC(=O)c1sc(CCN2CCN(C)CC2)nc1C(F)(F)F)c1cccc(N2CCOCC2)c1 [Example 48, 2-[2-(4-methyl-1-piperazinyl)ethyl]-N-[(1S)-1-[3-(4-morpholinyl)phenyl]ethyl]-4-(trifluoromethyl)-5-thiazolecarboxamide] | 3
– | CCN(CC)CC(O)c1nc(C(F)(F)F)c(C(=O)N[C@@H](C)c2cccc(N3CCOCC3)c2)s1 (stereo partly drawn) [Example 49, 2-[2-(diethylamino)-1-hydroxyethyl]-N-[(1S)-1-[3-(4-morpholinyl)phenyl]ethyl]-4-(trifluoromethyl)-5-thiazolecarboxamide] | 30
– | CCN(CC)CC(O)c1nc(C(F)(F)F)c(C(=O)N[C@@H](C)c2cccc(-c3cccnc3)c2)s1 (stereo partly drawn) [Example 50, 2-[2-(diethylamino)-1-hydroxyethyl]-N-[(1S)-1-[3-(3-pyridinyl)phenyl]ethyl]-4-(trifluoromethyl)-5-thiazolecarboxamide] | 0.3
– | CC(NC(=O)c1sc(C(O)CN2CCOCC2)nc1C(F)(F)F)c1cccc(OC(F)(F)F)c1 (stereo not shown) [Example 51, 2-[1-hydroxy-2-(4-morpholinyl)ethyl]-N-[1-[3-(trifluoromethoxy)phenyl]ethyl]-4-(trifluoromethyl)-5-thiazolecarboxamide] | 0.3
– | CC(NC(=O)c1sc(C(O)CN2CCOCC2)nc1C(F)(F)F)c1cccc(C(F)(F)F)c1 (stereo not shown) [Example 52, 2-[1-hydroxy-2-(4-morpholinyl)ethyl]-4-(trifluoromethyl)-N-[1-[3-(trifluoromethyl)phenyl]ethyl]-5-thiazolecarboxamide] | 10
– | CC(NC(=O)c1sc(C(O)CN2CCN(C)CC2)nc1C(F)(F)F)c1cccc(C(F)(F)F)c1 (stereo not shown) [Example 53, 2-[1-hydroxy-2-(4-methyl-1-piperazinyl)ethyl]-4-(trifluoromethyl)-N-[1-[3-(trifluoromethyl)phenyl]ethyl]-5-thiazolecarboxamide] | 30
– | C[C@H](NC(=O)c1sc(C(O)CN2CCN(C)CC2)nc1C(F)(F)F)c1cccc(N2CCOCC2)c1 (stereo partly drawn) [Example 54, 2-[1-hydroxy-2-(4-methyl-1-piperazinyl)ethyl]-N-[(1S)-1-[3-(4-morpholinyl)phenyl]ethyl]-4-(trifluoromethyl)-5-thiazolecarboxamide] | 0.3
– | C[C@H](NC(=O)c1sc(C(O)CN2CCN(C)CC2)nc1C(F)(F)F)c1cccc(-c2cccnc2)c1 (stereo partly drawn) [Example 55, 2-[1-hydroxy-2-(4-methyl-1-piperazinyl)ethyl]-N-[(1S)-1-[3-(3-pyridinyl)phenyl]ethyl]-4-(trifluoromethyl)-5-thiazolecarboxamide] | 0.3
– | CC(NC(=O)c1sc(C(O)CN2CCCCC2)nc1C(F)(F)F)c1cccc(C(F)(F)F)c1 (stereo not shown) [Example 56, 2-[1-hydroxy-2-(1-piperidinyl)ethyl]-4-(trifluoromethyl)-N-[1-[3-(trifluoromethyl)phenyl]ethyl]-5-thiazolecarboxamide] | 30
– | CC(NC(=O)c1sc(C(O)CN2CCCC2)nc1C(F)(F)F)c1cccc(OC(F)(F)F)c1 (stereo not shown) [Example 57, 2-[1-hydroxy-2-(1-pyrrolidinyl)ethyl]-N-[1-[3-(trifluoromethoxy)phenyl]ethyl]-4-(trifluoromethyl)-5-thiazolecarboxamide] | 3
– | CC(NC(=O)c1sc(C(O)CN2CCCC2)nc1C(F)(F)F)c1cccc(N(C)C)c1 (stereo not shown) [Example 58, N-[1-[3-(dimethylamino)phenyl]ethyl]-2-[1-hydroxy-2-(1-pyrrolidinyl)ethyl]-4-(trifluoromethyl)-5-thiazolecarboxamide] | 0.3
– | C[C@H](NC(=O)c1sc(C(O)CN2CCCC2)nc1C(F)(F)F)c1cccc(N2CCOCC2)c1 (stereo partly drawn) [Example 59, 2-[1-hydroxy-2-(1-pyrrolidinyl)ethyl]-N-[(1S)-1-[3-(4-morpholinyl)phenyl]ethyl]-4-(trifluoromethyl)-5-thiazolecarboxamide] | 30
– | CCCN(CC1CC1)CC(O)c1nc(C(F)(F)F)c(C(=O)NC(C)c2cccc(C(F)(F)F)c2)s1 (stereo not shown) [Example 60, 2-[2-[(cyclopropylmethyl)propylamino]-1-hydroxyethyl]-4-(trifluoromethyl)-N-[1-[3-(trifluoromethyl)phenyl]ethyl]-5-thiazolecarboxamide] | 3
